Experimental data: paper PMC3532212 (PLoS ONE, 2012)
“And” between values parts separate entries of the source, which are not always exact repeats. Equal entries are not always repeated. “Also recorded” adds a separate entry of the source.

Assays:
human S1P4 = biological target: T1, human S1P4 (Homo sapiens, UniProt O95977); experiment: B arrestin recruitment assay, Tango EDG6-bla U2OS cells; type: cell-based
T1 construct: host or cells: U2OS (Tango EDG6-bla)
T1 sequence (O95977 1-384): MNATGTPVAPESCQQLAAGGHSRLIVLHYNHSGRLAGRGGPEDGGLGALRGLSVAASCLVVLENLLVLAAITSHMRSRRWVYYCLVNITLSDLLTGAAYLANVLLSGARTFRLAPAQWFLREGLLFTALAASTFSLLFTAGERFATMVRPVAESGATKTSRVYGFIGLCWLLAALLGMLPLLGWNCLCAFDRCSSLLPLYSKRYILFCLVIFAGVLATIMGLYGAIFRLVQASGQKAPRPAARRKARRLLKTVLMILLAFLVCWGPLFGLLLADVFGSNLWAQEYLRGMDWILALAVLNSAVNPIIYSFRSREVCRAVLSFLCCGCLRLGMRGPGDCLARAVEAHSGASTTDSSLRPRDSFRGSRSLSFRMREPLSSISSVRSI
Protocol: Tango™ EDG1-bla U2OS cells (Human S1P1), Tango™ EDG3-bla U2OS cells (human S1P3), Tango™ EDG6-bla U2OS cells (human S1P4) and Tango™ EDG8-bla U2OS cells (human S1P5) cell lines were cultured and assayed according to manufacturers instructions with one modification; agonists incubated on the cells for 18 hours prior to addition of the GenBlazer substrate. Final DMSO concentration in the assay is 1%.

[1] = system: conscious, telemetry-instrumented rats; experiment: Telemetry-instrumented conscious rats, single oral dose hemodynamics; type: in vivo; conditions: conscious rat; for mean arterial pressure above baseline, 24-hr mean: vehicle 3.6±1.5
Protocol: (§1) Mean arterial pressure was assessed in conscious, freely moving male Sprague Dawley rats (n = 6–8/group; Charles River) instrumented with telemetry transmitters (DSI-Ponemah) and housed in metabolism cages as previously described, [26]. Tested compounds were solubilized in a 0.5% Methylcellulose/0.015% Tween 80 vehicle that was also dosed alone (p.o./QD, 5 mL/kg) as a control in the study. FTY720 was administered p.o. at 0.3, 1.0, 3.0, 10.0 mg/kg p.o. as a single dose or p.o./QD at 0.5, 1.5, and 5.0 mg/kg in a chronic study. BAF312 was administered p.o/QD at 0.3, 3.0, and 30 mg/kg as a single dose and in a chronic study. Mean arterial pressure and heart rate are shown as 1-hr and/or 24-hr mean values±SEM as described in the results. Blood samples in satellite rats were withdrawn at various timepoints as described in the results for analysis of plasma concentrations of the parent compound and, in the case of FTY720, also the phosphorylated metabolite, (S)-FTY720-P. Statistical analysis for the single-dose acute studies was based on one-way ANOVA to compare the treatment groups vs. vehicle for each time period after dosing (0–24 hrs, 24–48 hrs, and 48–72 hrs); statistical significance (p<0.05) was detected by Dunnett’s post-hoc test to compare treatment with vehicle controls. The statistical analysis in the chronic studies were based on one-way ANOVA with repeated measures to compare the treatment arms; statistical significance (p<0.05) was detected by Dunnett’s post-hoc test to compare treatment with vehicle controls.

[2] = system: conscious, telemetry-instrumented rats; experiment: Telemetry-instrumented conscious rats, repeat-dosing hemodynamics; type: in vivo; conditions: conscious rat; for mean arterial pressure, average change in 24-mean values: 14-days of treatment; for mean arterial pressure increase relative to baseline, 24-hr mean over the treatment period: vehicle 3.7±0.5
Protocol: as §1, with “BAF312 was administered p.o/QD at 0.3, 3.0, and 30 mg/kg as a single dose and in a chronic study.” left out

[3] = system: mouse and rat experimental autoimmune encephalitis, EAE; design: method as in PMID 23436932; conditions: correlated with reduced circulating lymphocytes and monocytes; cited from earlier work
[4] = Plasma concentrations after a single oral dose in rats; type: in vivo; conditions: rat; for concentration at 4 hr / concentration at 8 h / concentration at 24 h / concentration at 48 h / concentration at 72 h: male, Sprague Dawley, plasma, mean±SEM; for concentration at 4 hr: 4 hr post-dose; for concentration at 8 h: 8 hr post-dose; for concentration at 24 h: 24 hr post-dose; for concentration at 48 h: 48 hr post-dose; for concentration at 72 h: 72 hr post-dose
Protocol: as §1

[5] = Heart tissue concentrations at the end of the repeat-dosing study; type: in vivo; conditions: rat
Protocol: In the repeat-dosing study with FTY720 (0.5, 1.5, and 5.0 mg/kg/d), plasma concentrations were also determined ( Table 3 ).

[6] = BAF312 0.3, 3.0, 30 mg/kg single oral dose
[7] = FTY720 0.3 mg/kg single oral dose
[8] = FTY720 1.0 mg/kg single oral dose
[9] = FTY720 3.0 mg/kg single oral dose
[10] = FTY720 10.0 mg/kg single oral dose

Which “selectivity over S1P4” value (human S1P4; B arrestin EC50s) does the source give for `CCc1cc(/C(C)=N/OCc2ccc(C3CCCCC3)c(C(F)(F)F)c2)ccc1CN1CC(C(=O)O)C1` [BAF312] here?
The value was 100 fold.

What about the EC50 (human S1P4; B arrestin, 18 hours agonist incubation) of the same compound?
Its EC50 is 245 nM.

What about the “effect on heart rate” value [1, 6] of the same compound?
Its value is “no statistically significant effect”.

What about the “effect on mean arterial pressure” value [1, 6] of the same compound?
Its value is “no statistically significant effect”.

What about the “mean arterial pressure, average change in 24-mean values” (from here on “mean arterial pressure, average change”) ([2]; BAF312 0.3 mg/kg/d p.o./QD) of the same compound?
Its value is 3.0±0.5 mmHg.

And the “24-hr mean change in heart rate” value ([2]; BAF312 3 mg/kg dose group (so in the source), 14-day study)?
The value was −2±2 beats/min.

And the “mean arterial pressure, average change” value ([2]; BAF312 3.0 mg/kg/d p.o./QD)?
The value was 1.1±0.5 mmHg.

What about the “24-hr mean change in heart rate” value ([2]; BAF312 10 mg/kg dose group (so in the source), 14-day study) of the same compound?
Its value is −2±3 beats/min.

What about the “24-hr mean change in heart rate” value ([2]; BAF312 30 mg/kg dose group, 14-day study) of the same compound?
Its value is −2±4 beats/min.

And the “mean arterial pressure, average change” value ([2]; BAF312 30 mg/kg/d p.o./QD)?
The value was 0.1±0.5 mmHg.

And the “effect on blood pressure / mean arterial pressure during repeat dosing” value ([2]; BAF312 0.3, 3.0, 30.0 mg/kg/d p.o.)?
Its value is “no significant effect; also recorded: no significant increase”.

What about the “bradycardia during repeat dosing” value ([2]; BAF312 any dose group, 14-day study) of the same compound?
The value was “no bradycardia was observed”.

And the “efficacious dose in EAE” value [3]?
Its value is 0.3 mg/kg.

For `CCCCCCCCc1ccc(CCC(N)(CO)CO)cc1` [FTY720], which “mean arterial pressure above baseline, 24-hr mean” value ([1]; FTY720 3 mg/kg single oral dose, day 1) is on record?
Its value is 13.5±1.8 mmHg.

And the “mean arterial pressure above baseline, 24-hr mean” value ([1]; FTY720 10 mg/kg single oral dose, day 1)?
The value was 19.9±2.8 mmHg.

What about the “heart rate change from baseline, 24-hr mean” value ([1]; FTY720 10 mg/kg single oral dose, day 1, vehicle 15±3) of the same compound?
The value was −13±6 beats/min.

What about the “changes in heart rate vs vehicle after day 1” value ([1]; FTY720 single oral dose, after day 1 up to 72 hours) of the same compound?
Its value is “not different from vehicle control rats”.

What about the concentration at 4 hr [4, 7] of the same compound?
Its concentration at 4 hr is 10 ± 5 nM.

And the concentration at 8 h [4, 7]?
The concentration at 8 h was 14 ± 5 nM.

And the concentration at 24 h [4, 7]?
Its concentration at 24 h is 15 ± 3 nM.

What about the concentration at 48 h [4, 7] of the same compound?
The concentration at 48 h was 13 ± 1 nM.

And the concentration at 72 h [4, 7]?
The concentration at 72 h was 7 ± 2 nM.

And the concentration at 4 hr [4, 8]?
The concentration at 4 hr was 25 ± 3 nM.

What about the concentration at 8 h [4, 8] of the same compound?
Its concentration at 8 h is 36 ± 5 nM.

And the concentration at 24 h [4, 8]?
The concentration at 24 h was 22 ± 2 nM.

And the concentration at 48 h [4, 8]?
The concentration at 48 h was 12 ± 1 nM.

What about the concentration at 72 h [4, 8] of the same compound?
Its concentration at 72 h is 10 ± 1 nM.

What about the concentration at 4 hr [4, 9] of the same compound?
The concentration at 4 hr was 62 ± 4 nM.

What about the concentration at 8 h [4, 9] of the same compound?
The concentration at 8 h was 79 ± 17 nM.

And the concentration at 24 h [4, 9]?
The concentration at 24 h was 91 ± 19 nM.

And the concentration at 48 h [4, 9]?
Its concentration at 48 h is 53 ± 15 nM.

And the concentration at 72 h [4, 9]?
The concentration at 72 h was 34 ± 4 nM.

What about the concentration at 4 hr [4, 10] of the same compound?
Its concentration at 4 hr is 146 ± 18 nM.

What about the concentration at 8 h [4, 10] of the same compound?
Its concentration at 8 h is 274 ± 46 nM.

And the concentration at 24 h [4, 10]?
The concentration at 24 h was 301 ± 31 nM.

What about the concentration at 48 h [4, 10] of the same compound?
The concentration at 48 h was 143 ± 16 nM.

And the concentration at 72 h [4, 10]?
The concentration at 72 h was 101 ± 21 nM.

And the “Plasma concentration at Tmax” value [4, 7]?
The value was 15 ± 3 nM.

What about the “Plasma concentration at Tmax” value [4, 8] of the same compound?
Its value is 36 ± 5 nM.

What about the “Plasma concentration at Tmax” value [4, 9] of the same compound?
Its value is 91 ± 19 nM.

What about the “Plasma concentration at Tmax” value ([4]; FTY720 10 mg/kg single oral dose) of the same compound?
Its value is 301 ± 31 nM.

What about the “time post-dose through which plasma values were detectable” value ([4]; FTY720 single oral dose) of the same compound?
The value was “at least 72 hrs”.

What about the “24-hr mean change in heart rate” value ([2]; FTY720 0.5 mg/kg p.o./QD repeat dosing, vehicle −2±1) of the same compound?
Its value is 11±2 beats/min.

And the “mean arterial pressure increase relative to baseline, 24-hr mean over the treatment period” value ([2]; FTY720 0.5 mg/kg/d p.o./QD, 0.5 mg/kg/day)?
The value was 8.4 mmHg and 8.4±0.4 mmHg.

What about the “24-hr mean change in heart rate” value ([2]; FTY720 1.5 mg/kg p.o./QD repeat dosing, vehicle −2±1) of the same compound?
Its value is 1±1 beats/min.

And the “mean arterial pressure increase relative to baseline, 24-hr mean over the treatment period” value ([2]; FTY720 1.5 mg/kg/d p.o./QD, 1.5 mg/kg/day)?
Its value is 12.8 mmHg and 12.8±0.4 mmHg.

What about the “24-hr mean change in heart rate” value ([2]; FTY720 5.0 mg/kg p.o./QD repeat dosing, vehicle −2±1) of the same compound?
Its value is 1±3 beats/min.

And the “mean arterial pressure increase relative to baseline, 24-hr mean over the treatment period” value ([2]; FTY720 5.0 mg/kg/d p.o./QD, 5 mg/kg/day)?
The value was 16.2 mmHg and 16.2±0.8 mmHg.

And the “bradycardia during repeat dosing” value ([2]; FTY720 0.5, 1.5, 5.0 mg/kg/d p.o.)?
Its value is “no acute or sustained bradycardia”.

What about the “mean tissue concentration in heart” value ([5]; FTY720 0.5 mg/kg/d p.o.) of the same compound?
The value was 379 ng/g.

What about the “mean tissue concentration in heart” value ([5]; FTY720 1.5 mg/kg/d p.o.) of the same compound?
The value was 490 ng/g.

What about the “mean tissue concentration in heart” value ([5]; FTY720 5.0 mg/kg/d p.o.) of the same compound?
The value was 1848 ng/g.

What about the “efficacious dose in EAE” value [3] of the same compound?
Its value is 0.3 mg/kg.
